Experimental data taken from patent US12338253B2, “Nitrogen-containing polycyclic fused ring compound, pharmaceutical composition thereof, preparation method therefor and use thereof” (APPLIED PHARMACEUTICAL SCIENCE, INC., priority 2019, dated 2025).

Assays:
[1] = biological target: RET wt (Homo sapiens (Human), UniProt P07949); assay: HTRF kinase activity test, RET wt; format: biochemical; conditions: for IC50: HTRF KinEASE-TK; for inhibitory activity on RET wt compared with cabozantinib: comparison in words
[2] = biological target: RET V804M (Homo sapiens (Human), UniProt P07949, V804M); assay: HTRF kinase activity test, RET V804M; format: biochemical; conditions: for IC50: HTRF KinEASE-TK; for inhibitory activity on RET V804M compared with cabozantinib: comparison in words
[3] = test system: TT Cell; assay: TT cell activity test (CelltiterGlo, 72 h); format: cell-based, human; conditions: for IC50: Homo sapiens, TT cell line, 72 h, CTG; for inhibitory activity on TT cells compared with cabozantinib: comparison in words
Description: 2.3 Data Processing % Inhibition (inhibition rate)=100*(HC−test compound well reading)/(HC−LC) • High control (HC, reading control without inhibition): 0.5% DMSO • Low control (LC, control with compound inhibition): 1 μM CEP-32496
The IC50 values were calculated using GraphPad Prism 6 software. Y=Bottom+(Top−Bottom)/(1+10^((Log IC50−X)*HillSlope)); • X: log of cpd concentration; • Y: % inhibition; • Top and Bottom: plateaus in same units as Y; • Log IC50: same log units as X; and • HillSlope: slope factor The Cell Results are Shown in Table 5: […]

[4] = biological target: RET G810R (Homo sapiens (Human), UniProt P07949, G810R); assay: HTRF kinase activity test, RET G810R; format: biochemical; conditions: for IC50: HTRF KinEASE-TK; for inhibitory activity on RET G810R compared with cabozantinib and selpercatinib (LOXO-292): comparison in words
Chain of RET G810R (P07949 29-1114 G810R): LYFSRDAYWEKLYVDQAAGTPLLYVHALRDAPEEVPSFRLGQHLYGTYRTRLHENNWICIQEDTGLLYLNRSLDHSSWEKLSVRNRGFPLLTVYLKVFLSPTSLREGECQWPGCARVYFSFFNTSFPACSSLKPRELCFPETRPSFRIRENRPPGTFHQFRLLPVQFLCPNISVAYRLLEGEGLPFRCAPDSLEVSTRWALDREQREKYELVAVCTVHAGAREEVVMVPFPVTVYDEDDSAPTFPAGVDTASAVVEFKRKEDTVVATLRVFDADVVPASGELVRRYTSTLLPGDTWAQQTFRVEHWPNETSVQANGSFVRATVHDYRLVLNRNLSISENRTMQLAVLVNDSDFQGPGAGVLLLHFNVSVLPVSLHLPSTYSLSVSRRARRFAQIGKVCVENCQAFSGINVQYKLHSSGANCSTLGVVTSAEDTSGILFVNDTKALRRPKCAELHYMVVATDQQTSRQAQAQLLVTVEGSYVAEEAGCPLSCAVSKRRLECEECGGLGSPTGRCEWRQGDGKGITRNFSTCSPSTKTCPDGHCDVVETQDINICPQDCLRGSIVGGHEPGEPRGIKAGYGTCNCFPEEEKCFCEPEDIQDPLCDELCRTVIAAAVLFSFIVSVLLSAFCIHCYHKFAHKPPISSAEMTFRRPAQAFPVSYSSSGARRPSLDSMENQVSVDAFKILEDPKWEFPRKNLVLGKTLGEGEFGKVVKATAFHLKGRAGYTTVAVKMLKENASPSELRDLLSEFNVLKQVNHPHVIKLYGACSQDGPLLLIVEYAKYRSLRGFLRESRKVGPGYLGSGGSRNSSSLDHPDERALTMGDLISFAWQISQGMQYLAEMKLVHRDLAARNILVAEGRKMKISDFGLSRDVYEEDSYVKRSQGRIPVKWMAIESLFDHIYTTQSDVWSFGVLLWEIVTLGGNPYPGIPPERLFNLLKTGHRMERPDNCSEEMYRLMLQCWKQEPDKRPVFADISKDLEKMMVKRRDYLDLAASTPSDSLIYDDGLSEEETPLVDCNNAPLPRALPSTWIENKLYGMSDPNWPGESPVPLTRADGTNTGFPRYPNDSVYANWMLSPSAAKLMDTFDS

Chain of RET wt (P07949 29-1114): as the sequence (P07949 29-1114 G810R) above, with R782G counted along it
Chain of RET V804M (P07949 29-1114 V804M): as the sequence (P07949 29-1114 G810R) above, with V776M, R782G counted along it

Compound | IC50 [1] [nM] | inhibitory activity on RET wt compared with cabozantinib [1] | IC50 [2] [nM] | inhibitory activity on RET V804M compared with cabozantinib [2] | IC50 [3] [nM] | IC50 [4] [nM] | inhibitory activity on RET G810R compared with cabozantinib and selpercatinib (LOXO-292) [4] | inhibitory activity on TT cells compared with cabozantinib [3]
COCCOc1cc(-c2ccc(N3CC4CC(C3)N4Cc3ccc(OC)nc3)nc2)c2c3c(N)n[nH]c3nn2c1 [Compound 1, 6-(2-methoxyethoxy)-4-(6-(6-((6-methoxypyridin-3-yl)methyl)-3,6-diazabicyclo[3.3.1]heptan-3-yl)pyridin-3-yl)-1H-pyrazolo[3′,4′:3,4]pyrazolo[1,5-a]pyridin-3-amine] | 4.1 | significantly better than that of cabozantinib | 2.9 | significantly better than that of cabozantinib | 319 | – | – | –
COCCOc1cc(-c2ccc(N3CC4CC(C3)N4Cc3ccc(OC)nc3)nc2)c2c3cn[nH]c3nn2c1 [Compound 7, 6-(2-methoxyethoxy)-4-(6-(6-((6-methoxypyridin-3-yl)methyl)-3,6-diazabicyclo[3.3.1]heptan-3-yl)pyridin-3-yl)-1H-pyrazolo[3′,4′:3,4]pyrazolo[1,5-a]pyridine] | 0.1 | significantly better than that of cabozantinib | 0.1 | significantly better than that of cabozantinib | 2.5 | 2.7 | significantly better than that of cabozantinib and selpercatinib (LOXO-292) | significantly better than that of cabozantinib
COc1ccc(CN2C3CC2CN(c2ccc(-c4cc(OCCCF)cn5nc6[nH]ncc6c45)cn2)C3)cn1 [Compound 12, 6-(3-fluoropropoxy)-4-(6-(6-((6-methoxypyridin-3-yl)methyl)-3,6-diazabicyclo[3.3.1]heptan-3-yl)pyridin-3-yl)-1H-pyrazolo[3′,4′:3,4]pyrazolo[1,5-a]pyridine] | 0.1 | significantly better than that of cabozantinib | 0.1 | significantly better than that of cabozantinib | 1.5 | 3.9 | significantly better than that of cabozantinib and selpercatinib (LOXO-292) | significantly better than that of cabozantinib
COc1ccc(CN2C3CC2CN(c2cnc(-c4cc(OCCF)cn5nc6[nH]ncc6c45)cn2)C3)cn1 [Compound 16, 6-(2-fluoroethoxy)-4-(5-(6-((6-methoxypyridin-3-yl)methyl)-3,6-diazabicyclo[3.3.1]heptan-3-yl)pyrazin-2-yl)-1H-pyrazolo[3′,4′:3,4]pyrazolo[1,5-a]pyridine] | – | – | 0.1 | significantly better than that of cabozantinib | 12.8 | 2.9 | significantly better than that of cabozantinib and selpercatinib (LOXO-292) | significantly better than that of cabozantinib
COc1ccc(C(=O)N2C3CC2CN(c2ccc(-c4cc(OCCF)cn5nc6[nH]ncc6c45)cn2)C3)cn1 [Compound 23, (3-(5-(6-(2-fluoroethoxy)-1H-pyrazolo[3′,4′:3,4]pyrazolo[1,5-a]pyridin-4-yl)pyridin-2-yl)-3,6-diazabicyclo[3.3.1]heptan-6-yl)(6-methoxypyridin-3-yl)methanone] | – | – | 0.1 | significantly better than that of cabozantinib | 7.9 | – | – | significantly better than that of cabozantinib
COc1cc(-c2cnc(N3CC4CC(C3)N4Cc3ccc(OC)nc3)cn2)c2c3cn[nH]c3nn2c1 [Compound 24, 6-methoxy-4-(5-(6-((6-methoxypyridin-3-yl)methyl)-3,6-diazabicyclo[3.3.1]heptan-3-yl)pyrazin-2-yl)-1H-pyrazolo[3′,4′:3,4]pyrazolo[1,5-a]pyridine] | – | – | – | – | 22.4 | 2.3 | significantly better than that of cabozantinib and selpercatinib (LOXO-292) | significantly better than that of cabozantinib
COc1ccc(CN2C3CC2CN(c2cnc(-c4cc(OCC(F)F)cn5nc6[nH]ncc6c45)cn2)C3)cn1 [Compound 25, 6-(2,2-difluoroethoxy)-4-(5-(6-((6-methoxypyridin-3-yl)methyl)-3,6-diazabicyclo[3.3.1]heptan-3-yl)pyrazin-2-yl)-1H-pyrazolo[3′,4′:3,4]pyrazolo[1,5-a]pyridine] | – | – | – | – | 23.4 | 4.3 | significantly better than that of cabozantinib and selpercatinib (LOXO-292) | significantly better than that of cabozantinib
COc1ccc(CN2C3CC2CN(c2ccc(-c4cc(OCC#N)cn5nc6[nH]ncc6c45)cn2)C3)cn1 [Compound 26, 2-((4-(6-(6-((6-methoxypyridin-3-yl)methyl)-3,6-diazabicyclo[3.3.1]heptan-3-yl)pyridin-3-yl)-1H-pyrazolo[3′,4′:3,4]pyrazolo[1,5-a]pyridin-6-yl)oxy)acetonitrile] | – | – | – | – | 22.7 | 2.1 | significantly better than that of cabozantinib and selpercatinib (LOXO-292) | significantly better than that of cabozantinib
COc1ccc(CN2C3CC2CN(c2ccc(-c4cc(OCCOC(F)F)cn5nc6[nH]ncc6c45)cn2)C3)cn1 [Compound 27, 6-(2-(difluoromethoxy)ethoxy)-4-(6-(6-((6-methoxypyridin-3-yl)methyl)-3,6-diazabicyclo[3.3.1]heptan-3-yl)pyridin-3-yl)-1H-pyrazolo[3′,4′:3,4]pyrazolo[1,5-a]pyridine] | 0.1 | significantly better than that of cabozantinib | 0.1 | significantly better than that of cabozantinib | 27.9 | 4.8 | significantly better than that of cabozantinib and selpercatinib (LOXO-292) | significantly better than that of cabozantinib
COc1ccc(CN2C3CC2CN(c2ccc(-c4cc(OCC(F)(F)F)cn5nc6[nH]ncc6c45)cn2)C3)cn1 [Compound 30, 4-(6-(6-((6-methoxypyridin-3-yl)methyl)-3,6-diazabicyclo[3.3.1]heptan-3-yl)pyridin-3-yl)-6-(2,2,2-trifluoroethoxy)-1H-pyrazolo[3′,4′:3,4]pyrazolo[1,5-a]pyridine] | – | – | – | – | 48.6 | 5.9 | significantly better than that of cabozantinib and selpercatinib (LOXO-292) | significantly better than that of cabozantinib
COc1cc(-c2ccc(N3CC4CC(C3)N4Cc3ccc(OC)nc3)nc2)c2c3cn[nH]c3nn2c1 [Compound 36, 6-methoxy-4-(6-(6-((6-methoxypyridin-3-yl)methyl)-3,6-diazabicyclo[3.3.1]heptan-3-yl)pyridin-3-yl)-1H-pyrazolo[3′,4′:3,4]pyrazolo[1,5-a]pyridine] | 0.2 | significantly better than that of cabozantinib | 0.1 | significantly better than that of cabozantinib | 10.7 | 1.7 | significantly better than that of cabozantinib and selpercatinib (LOXO-292) | significantly better than that of cabozantinib
CCCOc1cc(-c2ccc(N3CC4CC(C3)N4Cc3ccc(OC)nc3)nc2)c2c3cn[nH]c3nn2c1 [Compound 38, 4-(6-(6-((6-methoxypyridin-3-yl)methyl)-3,6-diazabicyclo[3.3.1]heptan-3-yl)pyridin-3-yl)-6-propoxy-1H-pyrazolo[3′,4′:3,4]pyrazolo[1,5-a]pyridine] | 0.2 | significantly better than that of cabozantinib | 0.1 | significantly better than that of cabozantinib | 10.6 | 2.9 | significantly better than that of cabozantinib and selpercatinib (LOXO-292) | significantly better than that of cabozantinib
COc1ccc(CN2C3CC2CN(c2ccc(-c4cc(OCC(C)C)cn5nc6[nH]ncc6c45)cn2)C3)cn1 [Compound 39, 6-isobutoxy-4-(6-(6-((6-methoxypyridin-3-yl)methyl)-3,6-diazabicyclo[3.3.1]heptan-3-yl)pyridin-3-yl)-1H-pyrazolo[3′,4′:3,4]pyrazolo[1,5-a]pyridine] | 0.4 | significantly better than that of cabozantinib | 0.3 | significantly better than that of cabozantinib | 12.3 | 30.5 | significantly better than that of cabozantinib and selpercatinib (LOXO-292) | significantly better than that of cabozantinib
